Measurements reported in patent publication EP4205737A1, “COMPOSITION FOR PREVENTION, AMELIORATION, OR TREATMENT OF INFLAMMATORY DISEASES OR IMMUNE DISEASES COMPRISING GANCAONIN N AS ACTIVE INGREDIENT” (UNIVERSITY-INDUSTRY COOPERATION GROUP OF KYUNG HEE …, priority 2020, dated 2022).

Columns and labels:
[1] = test system: IL-6; assay: Real-time PCR of IL-6 mRNA in LPS-stimulated A549 cells; assay type: cell-based, human; conditions: LPS 5 ug/mL, 5 to 40 µM, 24 hours, effect proportional to amount (FIG. 3C)
Method: (§1) A549 cells were dispensed into 6-well plates (1 × 10^6 cells/well) and cultured under conditions of 37°C and 5% CO2. After the culturing, the A549 cells were treated with of 5 ug/mL of lipopolysaccharide (LPS) and with 5 µM to 40 µM of gancaonin N, and the cells were then cultured for 24 hours. Afterwards, total RNA was isolated from each treated cell using Hybrid-RTM (GeneAll, South Korea). The isolated total RNA (500 ng) was converted to cDNA sequentially through incubation at 55°C for 60 minutes using oligo (dT) and incubation at 85°C for 5 minutes, and the cDNA was stored at 4°C until being used. In addition, real-time quantitative PCR was performed using Universal SYBR Green Master Mix (Applied Biosystems, USA), and the cDNA was amplified under conditions described below. 95°C for 15 minutes, then 95°C for 30 seconds, 59°C for 30 seconds, and 72°C for 30 seconds were repeated 40 times. […]
(§2) To investigate the inhibitory effect of gancaonin on the expression levels of pro-inflammatory cytokines, the mRNA expression levels of tumor necrosis factor-α (hereinafter referred to as TNF-α), interleukin-1 beta (hereinafter referred to as IL-1β), and interleukin 6 (hereinafter referred to as IL-6) which are all known as pro-inflammatory cytokines were measured. […]

[2] = test system: PGE2; assay: Western blotting of PGE2 in LPS-stimulated RAW264.7 cells; assay type: cell-based, murine; conditions: LPS 1 µg/mL, 5 to 40 µM, as treatment concentration increased (FIG. 2B)
Method: (§3) RAW264.7 cells and A549 cells were dispensed into 6-well plates (1 × 10^6 cells/well) and cultured under conditions of 37°C and 5% CO2. After the culturing, the Raw 264.7 cells were treated with 1 µg/mL of lipopolysaccharide (LPS) and the A549 cells were treated with 5 µg/mL of lipopolysaccharide (LPS) and with 5 µM to 40 µM of gancaonin N, and the cells were cultured for 24 hours or 6 hours. Then, the cells were lysed using a lysis buffer. In addition, the left lung extracted from each mouse was lysed using RIPA buffer. SDS-PAGE electrophoresis was performed on the cell and tissue lysates to separate proteins by side, and 5% bovine serum albumin was used for culturing and for blocking antibodies against PGE2 (1:500), IL-1β (1:500), IL-6 (1:500), TNF-α (1:500), i-NOS (1:500), COX-2 (1:1000), P-ERK1/2 (1:1000), ERK1/2 (1:3000), P-p38 (1:1000), p38 (1:3000), NF-κB p65 (1:1000), Lamin B1 (1:1000), and β-actin (1: 5,000).
(§4) To investigate the anti-inflammatory effect of gancaonin N, the inventors treated Raw264.7 cells with LPS and Gancaonin N, as described in Examples 1 to 6, and evaluated the expression level of inflammation-inducing factors. Thus, the inhibitory effect of gancaonin N on inflammation-related factors was specifically confirmed.

[3] = test system: COX-2; assay: Western blotting of COX-2 in lung of LPS-induced acute lung injury mouse model; assay type: in vivo, BALB/c mice; conditions: mice, 10 mg/kg or 30 mg/kg intraperitoneally, LPS-induced ALI, Western blotting (FIG. 8)
Method: (§5) 25 6-week-old female BALB/c mice having a weight of 18g to 20 g were purchased from BioLink (DBL CO., Eumseong, Chungcheongbuk-do, Korea), and reared in the animal laboratory of KyungHee University. To establish an LPS-induced acute lung injury model, all the mice were divided into five groups each group of which consisted of 5 mice, and the five groups were referred to as control, vehicle (only LPS treatment), gancaonin N (10 mg/kg), gancaonin N (30 mg/kg), and dexamethasone (3 mg/kg). Gancaonin N was intraperitoneally injected at a dose of 10 mg/kg or 30 mg/kg, and dexamethasone was intraperitoneally injected at a dose of 3 mg/kg as a positive control group. In addition, the control and vehicle groups were intraperitoneally injected with 4% DMSO in which gancaonin N was dissolved. Then, 10 µg/50 µL of LPS was intratracheally administered to the mice except for the control group one hour later (the control group mice were administered 50 µL of PBS), and the mice were sacrificed 12 hours later.
(§6) RAW264.7 cells and A549 cells were dispensed into 6-well plates (1 × 10^6 cells/well) and cultured under conditions of 37°C and 5% CO2. […]
(§7) To specifically investigate whether gancaonin N can inhibit pro-inflammatory factors in a mouse model, the protein expression levels of COX-2, IL-1β, and TNF-α were measured by Western blotting as described in Examples 1 to 6 above.

[4] = test system: TNF-α; assay: Real-time PCR of TNF-α mRNA in LPS-stimulated A549 cells; assay type: cell-based, human; conditions: LPS 5 ug/mL, 5 to 40 µM, 24 hours, effect proportional to amount (FIG. 3A)
Method: as §1, §2

[5] = test system: COX-2; assay: Western blotting of COX-2 in LPS-stimulated RAW264.7 cells; assay type: cell-based, murine; conditions: LPS 1 µg/mL, 5 to 40 µM, as treatment concentration increased (FIG. 2D)
Method: as §3, §4

[6] = test system: TNF-α; assay: Western blotting of TNF-α in lung of LPS-induced acute lung injury mouse model; assay type: in vivo, BALB/c mice; conditions: mice, 10 mg/kg or 30 mg/kg intraperitoneally, LPS-induced ALI, Western blotting (FIG. 8)
Method: as §5, §6, §7

[7] = test system: LPS-induced acute lung injury (ALI) mouse model; assay: Bronchoalveolar lavage fluid analysis (inflammatory cell infiltration), LPS-induced acute lung injury mouse model; assay type: in vivo, BALB/c mice; conditions: mice, 10 mg/kg or 30 mg/kg intraperitoneally one hour before intratracheal LPS
Method: as §5, with “Then, 10 µg/50 µL of LPS was intratracheally administered to the mice except for the control group one hour later (the control group mice were administered 50 µL of PBS), and the mice were sacrificed 12 hours later.” left out
Bronchoalveolar lavage fluid (BALF) was obtained after anesthetizing each mouse with intranasal isoflurane. […] The cells were stained with the Diff-Quik kit (Sysmex, Kobe, Japan), observed under a microscope, and sorted, and then the total cells and neutrophils were counted.
The mouse models prepared as described in Examples 1 to 3 were treated with LPS to induce acute lung injury (ALI), and then the anti-inflammatory effect of gancaonin N was specifically evaluated for the mice of five groups (control, vehicle (only LPS), gancaonin N (10 mg/kg), gancaonin N (30 mg/kg), and dexamethasone (3 mg/kg)), […]

COc1ccc(-c2coc3cc(O)c(CC=C(C)C)c(O)c3c2=O)c(O)c1 [gancaonin N, 5,7-dihydroxy-3-(2-hydroxy-4-methoxyphenyl)-6-(3-methylbut-2-enyl)chromen-4-one]
mRNA expression of IL-6 [1]: significantly inhibited
expression level of protein of PGE2 [2]: significantly decreased
protein expression level of COX-2 in lung [3]: significantly reduced
mRNA expression of TNF-α [4]: significantly inhibited
expression level of protein of COX-2 [5]: significantly decreased
protein expression level of TNF-α in lung [6]: significantly reduced
cell count in bronchoalveolar lavage fluid (BALF) ([7]; sacrificed 12 hours later (FIG. 6B)): significantly reduced
neutrophil count in bronchoalveolar lavage fluid (BALF) ([7]; sacrificed 12 hours later (FIG. 6C)): significantly reduced
